# Source: US20260284211A1, “DISACCHARIDE LINKER, LINKER-PAYLOAD CONTAINING THE SAME AND GLYCAN CHAIN-REMODELED ANTIBODY-DRUG CONJUGATE, PREPARATION METHOD AND USES THEREOF” (GENEQUANTUM HEALTHCARE (SUZHOU) CO., LTD., priority 2023, published 2026)
# Legend:
# Type in all cases: cell-based
# NCI-N87 tumor cells = assay: Inhibition of NCI-N87 tumor cell proliferation (CellTiter-Glo); details: Homo sapiens, HER2 high expression cells, 96 hours, cell viability, read-out: IC50, inhibitory effects on NCI-N87 tumor cells
# Method: (§1) Tumor cells in the logarithmic phase of growth were collected, and 5000 cells per well were evenly inoculated in each hole of the 96-well plate. After the cell adhesion overnight, the cells were treated with different concentrations of drugs for 96 hours. Cell viability was measured by CellTiter-Glo® luminescence cell viability detection kit, and the percentage of cell viability was calculated.
# MDA-MB-468 tumor cells = assay: Inhibition of MDA-MB-468 tumor cell proliferation (CellTiter-Glo); details: Homo sapiens, HER2-negative cells, 96 hours, cell viability, read-out: IC50, inhibitory effects on MDA-MB-468 tumor cells
# Method: as §1
# SK-BR-3 tumor cells = assay: Inhibition of SK-BR-3 tumor cell proliferation (CellTiter-Glo); details: Homo sapiens, HER2 high expression cells, 96 hours, cell viability, read-out: IC50, inhibitory effects on SK-BR-3 tumor cells
# Method: as §1
compound,measurement,setting,value
C=C1C[C@@H]2CC[C@@]34C[C@H]5O[C@H]6[C@@H](O3)[C@H]3O[C@H](CC[C@@H]3O[C@H]6[C@H]5O4)CC(=O)C[C@@H]3[C@@H](OC)[C@@H](C[C@H](O)CN)O[C@H]3C[C@H]3O[C@@H](CC[C@@H]1O2)C[C@@H](C)C3=C [Eribulin],IC50,NCI-N87 tumor cells,0.614 nM
same,IC50,MDA-MB-468 tumor cells,0.0933 nM
same,IC50,SK-BR-3 tumor cells,0.305 nM
